This assay concerns human PBMCs. Kind of assay: proliferation of human PBMCs (Cell-Titer Glo 2.0). Type of assay: cell-based. The following applies: Compound 1 0.01 μM to 10 μM, 10 days; FIG. 8B. The method, then:
Next, the proliferation of PMBCs was examined following treatment with DHX9 inhibitor using the following assay.
Human PBMCs were thawed from a frozen cryotube in a 37° C. water bath and transferred to a flask with medium X-Vivo 15 supplemented with 5% Fetal Bovine Serum (FBS), 1% PenStrep, and 1% Glutamax. Flasks were incubated at 37 C for 30 minutes. PBMCs were harvested from flask and counted. PBMCs were diluted in medium and added to 96 well plates at 100,000 PBMCs per well. A stimulus mixture containing IL-15 at 1 ng/well, IL-21 at 5 ng/well, and CD40L at 5 ng/well was added to each well. Test compounds were prepared in DMSO stock solution and serially diluted. Compound (0.1% final DMSO concentration) was added to each well. DMSO was used as a negative control (high control, HC) and staurosporine was used a positive control (low control, LC). Plates were incubated at 37 C for 0, 2, 4, 6, 8, 10 days. Every other day, medium was replenished with stimulus and diluted compounds.
At each CTG time point, plate was removed from incubator and Cell-Titer Glo 2.0 reagent was added to each well according to manufacturer's (Promega) protocol and detected on an Envision. The inhibition activity was calculated following the formula below:
% Inhibition=100×(ReadoutHC−ReadoutSample)/(ReadoutHC−ReadoutLC)
PBMCs were exposed to Compound 1 at concentrations ranging from 0.01 μM to 10 μM for 10 days. […]

As for `Cc1cccnc1-c1csc(C(=O)Nc2cc(Cl)cc(NS(C)(=O)=O)c2)c1` [Compound 1, N-(3-chloro-5-methanesulfonamidophenyl)-4-(3-methylpyridin-2-yl)thiophene-2-carboxamide], the “proliferation of PBMCs” value is given as “did not inhibit proliferation of PBMCs”.

The record behind these values is patent US20260297679A1, “ASSAYS FOR MONITORING INHIBITION OF RNA HELICASE DHX9” (ACCENT THERAPEUTICS, INC., priority 2023, published 2026).
